# Source: patent US20230405151A1, “USE OF IRAK4 MODULATORS FOR GENE THERAPY” (Genzyme Corporation, priority 2022, published 2023)
# System: C57BL/6J mice injected with AAV (LacZ transgene)
# Assay: In vivo mouse AAV model: CD8 TEM and lacZ tetramer staining of PBMCs and splenocytes
# Conditions: chow 100 mg/kg from 15 days prior to AAV, versus AAV group
# Method: In-vivo mice experiments. C57BL/6J mice were purchased from Jackson Laboratories. 6-8-week male mice were divided into 3 groups—PBS group, AAV group and AAV+IRAK4 group all groups with 10 mice each. Zimlovisertib IRAK4 inhibitor (Synonyms: PF-06650833) Cat. No.: HY-19836 (MedChemExpress) was mixed with mouse chow Catalog #2016, Teklad Global 16% Protein Rodent Diets https://www.inotivco.com/rodent-natural-ingredient-2016-diets at a dose of 30 mg/kg. AAV+IRAK4 group was fed the chow with Zimlovisertib IRAK4 inhibitor 15 days prior to AAV injection whereas PBS and AAV group were fed with mouse chow Catalog #2016, Teklad Global 16% Protein Rodent Diets https://www.inotivco.com/rodent-natural-ingredient-2016-diets. PBS group mice were injected intramuscularly with 100 ul PBS, AAV group was injected intramuscularly with 1e11 vg per quadricep muscle of both legs, 100 ul volume.
# The same experiment design was followed with n=6 mice in each group PBS group, AAV group and AAV+IRAK4 degrader PROTAC IRAK4 degrader-1 Cat. No.: HY-129966 (MedChemExpress) that was mixed with chow at 100 mg/kg and fed to mice 15 days prior to AAV injection. […] AAV capsid used in the study had LacZ transgene. All animal experiments were conducted in accordance with the Institutional Animal Care and Use Committees at Sanofi, Framingham. Submandibular bleeds were performed weekly, and necropsy was performed three weeks post AAV injection.
# PBMC isolation and surface staining. 120 ul blood was collected in K2EDTA coated tubes. The blood was mixed with DBPS at 1:1 ration and pipetted into a separate tube containing Ficoll (GE17-5442-02) to ensure no mixing of the blood and Ficoll phases. The mixture was centrifuged at 2000 RPM for 25 minutes at room temperature (9 acceleration and no braking). The buffy coat containing the peripheral blood mononuclear cells (PBMCs) was collected, transferred to a new tube, and centrifuged for five minutes at 400 RCF. PBMCs were washed three times with phosphate buffered saline (PBS) containing 1% fetal bovine serum (FBS) or fetal calf serum (FCS) and counted. The PBMC cells thus obtained were stained with different antibodies to quantify percentage of different immune cell subsets in peripheral blood.
# PBMC CD8 TEM and lacZ tetramer staining. The PBMC was isolated from ˜120 μl of mouse blood, and it was transferred to a 96-well U-bottom plate. […]
smiles,measurement,setting,value
Cn1c(=O)n(C2CCC(=O)NC2=O)c2cccc(C#CCOC3CCN(C[C@H]4CC[C@H](n5cc(NC(=O)c6cnn7ccc(N8C[C@H]9C[C@@H]8CO9)nc67)c(C(F)F)n5)CC4)CC3)c21 (some centres unmarked) [KT-474],LacZ tetramer positive (transgene LacZ specific CD8 T) cells in PBMCs,14 days post AAV injections,reduced significantly
same,LacZ tetramer positive (transgene LacZ specific CD8 T) cells in spleen,21 days post AAV injections,reduced significantly
